Assay results as given in patent US10632181B2, “Composition, containing RGD motif-containing peptide or fragment thereof, for treating burns and glaucoma, alleviating skin wrinkles, and promoting hair growth” (HUONS CO., LTD., priority 2014, dated 2020).
Positions of bridges follow the written chain, without caps; N, C: chain ends. No end group written: not given here.

Experiments:
[1] = tested on: glaucoma animal model having microbead-induced elevated intraocular pressure; assay: Glaucoma test: intraocular pressure; type: in vivo, mouse; conditions: for intraocular pressure change: 20 ug/ml applied to eye once daily
Description: (§1) For control drug, Taflotan eye drops (Santen Pharmaceutical Co., Ltd.) were used, and for test drug, Taflotan eye drops+HU024 (SEQ ID NO:2) (sample 1), HU024 (SEQ ID NO:2) (sample 2), HU025 (SEQ ID NO:3) (sample 3), HU026 (SEQ ID NO:4) (sample 4), and HU027 (SEQ ID NO:5) (sample 5) were used, and testing was performed on glaucoma animal model having microbead-induced elevated intraocular pressure. In experimental animal model, Rompun solution for injection and zoletil were mixed and used to put the experimental animal under anesthesia, topical anesthetic Alcaine was applied to eye, 1×106 microbead/mL 1 μL was injected into anterior chamber using micro glass needle to induce an increase in intraocular pressure for 2 weeks (IOVS 2011 Vol. 52 36-).
(§2) The control drug and 5 samples were provided to the experimental animal having the elevated intraocular pressure for 2 weeks, 5 samples were applied to eye once daily, comparative verification of efficacy was performed, and intraocular pressure reduction and optic nerve cell in the retina was observed through administration for 4 weeks.
(§3) The intraocular pressure was measured using a contact-type intraocular pressure meter Tono lab's tonometer TV02 model. […] In 5-7 days after fluorescent probe injection, the eye was enucleated and fixed in 4% paraformaldehyde at room temperature for 4 hours. The retina was separated from choroid of the fixed eye and mounted on a slide. In each experimental group slide, optic nerve cell expressing fluorescence was detected using fluorescence microscope, images were taken at a magnification of ×40 and ×200, and data was collected.

[2] = tested on: optic nerve cell in the retina of glaucoma animal model; assay: Glaucoma test: optic nerve cell in the retina (Fluorogold); type: in vivo, mouse; conditions: applied to eye once daily, Fluorogold labelling
Description: as §1, §2, §3

[3] = Hair growth test: body weight; type: in vivo; conditions: skin
Description: (§4) This test was conducted to assess the influence on hair growth of C57BL/6 mouse when 4 types of test substances, HU024 (SEQ ID NO:2), HU025 (SEQ ID NO:3), HU026 (SEQ ID NO:4), and HU027 (SEQ ID NO:5), were applied to the skin for 14 days.
(§5) The group design was set to negative control (sterile water for injection G1), test substance HU024 (SEQ ID NO:2) 20 ug/head/day (G2), test substance HU024 (SEQ ID NO:2) 60 ug/head/day (G3), test substance HU025 (SEQ ID NO:3) 20 ug/head/day (G4), test substance HU025 (SEQ ID NO:3) 60 ug/head/day (G5), test substance HU026 (SEQ ID NO:4) 20 ug/head/day (G6), test substance HU026 (SEQ ID NO:4) 60 ug/head/day (G7), test substance HU027 (SEQ ID NO:5) 20 ug/head/day (G8), test substance HU027 (SEQ ID NO:5) 60 ug/head/day (G9) and positive control minoxyl 3% (G10) administered groups. Each group had 10 animals.
(§6) After the animal was put under anesthesia using zoletil (1 mL/kg, i.p), the back of the animal was primarily shaved using a depilator, and Veet depilatory was evenly applied on the back. After about 5 minutes, the applied site was cleaned up using gauze moistened with sterile water for injection. Only animal whose shaved back was scarlet in color was used for group separation. The test substance was applied to the same site daily once per day, 7 times per week for 14 days, and the test substance was evenly applied to the shaved site (on the back) by rubbing with a glass rod about 10 times.
The test item was measurements of dead animal, general syndrome, weight change, hair growing area and hair weight, and comparison with negative control was conducted.
(§7) The measurement results were analyzed using SPSS (ver. 10.1K), Duncan t-test for weight changes was conducted through one-way analysis of variance, hair weight was compared between groups using Student's t-test, and hair growing area was compared between groups through nonparametric multiple comparison procedures Whitney-Mann methods. P<0.05 was determined to be statistically significant.

[4] = tested on: hair growth of C57BL/6 mouse; assay: Hair growth test: hair growing area; type: in vivo
Description: as §4, §5, §6
The hair growing area (%) relative to the test substance-applied area was measured and determined, and Image analyzer program (Image Pro Plus ver. 6.3, Cybermetics, USA) was used to measure. […] Imaging was performed together with the measurements on the date when the hair area was measured. On the next day after the end of application, the animals were killed by CO2 gas, and hair on the hair growing area was removed by a depilator and hair weight was measured.
as §7

[5] = tested on: hair growth of C57BL/6 mouse; assay: Hair growth test: hair weight; type: in vivo
Description: as §4, §5, §6
The hair growing area (%) relative to the test substance-applied area was measured and determined, and Image analyzer program (Image Pro Plus ver. 6.3, Cybermetics, USA) was used to measure. It was measured on the 1st, 3rd, 7th, 10th and 14th days after test substance administration. Imaging was performed together with the measurements on the date when the hair area was measured. On the next day after the end of application, the animals were killed by CO2 gas, and hair on the hair growing area was removed by a depilator and hair weight was measured.
as §7

| Compound | optic nerve cell death / protection [2] | BODY WEIGHTS ([3]; 20 ug/head/day, Day 1) [g] | BODY WEIGHTS ([3]; 20 ug/head/day, Day 7) [g] | BODY WEIGHTS ([3]; 20 ug/head/day, Day 11) [g] | BODY WEIGHTS ([3]; 60 ug/head/day, Day 1) [g] | BODY WEIGHTS ([3]; 60 ug/head/day, Day 7) [g] | BODY WEIGHTS ([3]; 60 ug/head/day, Day 11) [g] | HAIR AREA (%) ([4]; 20 ug/head/day, Day 1) | HAIR AREA (%) ([4]; 20 ug/head/day, Day 4) | HAIR AREA (%) ([4]; 20 ug/head/day, Day 7) | HAIR AREA (%) ([4]; 20 ug/head/day, Day 10) | HAIR AREA (%) ([4]; 20 ug/head/day, Day 14) | HAIR AREA (%) ([4]; 60 ug/head/day, Day 1) | HAIR AREA (%) ([4]; 60 ug/head/day, Day 4) | HAIR AREA (%) ([4]; 60 ug/head/day, Day 7) | HAIR AREA (%) ([4]; 60 ug/head/day, Day 10) | HAIR AREA (%) ([4]; 60 ug/head/day, Day 14) | HAIR WEIGHTS ([5]; 20 ug/head/day for 14 days) [g] | HAIR WEIGHTS ([5]; 60 ug/head/day for 14 days) [g] | intraocular pressure change [1] | other results |
| --- | --- | --- | --- | --- | --- | --- | --- | --- | --- | --- | --- | --- | --- | --- | --- | --- | --- | --- | --- | --- | --- |
| CC(C)OC(=O)CCC/C=C\C[C@@H]1[C@@H](/C=C/C(F)(F)COc2ccccc2)[C@H](O)C[C@@H]1O [Tafluprost, reference compound] | protection from optic nerve cell death was observed |  |  |  |  |  |  |  |  |  |  |  |  |  |  |  |  |  |  |  | intraocular pressure numerical value ([1]; positive control, eye drops): 15.9±2.9 mmHg; intraocular pressure reduction as compared to negative control ([1]; positive control, eye drops): 20.89% |
| HU026 (TRGDCDLPEFCP; disulfide 5-11; listed as Homo sapiens) | protection from optic nerve cell death was observed | 21.20 ± 0.77 | 22.48 ± 1.12 | 23.75 ± 1.27 | 21.58 ± 0.61 | 22.80 ± 1.03 | 23.83 ± 1.30 | 0.10 ± 0.05 | 0.13 ± 0.07 | 0.43 ± 0.30 | 7.67 ± 4.54 | 56.64 ± 12.26 | 0.07 ± 0.04 | 0.22 ± 0.13 | 0.69 ± 0.37 | 13.54 ± 4.75 | 65.41 ± 11.62 | 0.021 ± 0.008 | 0.026 ± 0.007 | the intraocular pressure did not reduce |  |
| NH2—RPTRGDCDLPEFCPG—COOH (H-RPTRGDCDLPEFCPG-OH; cysteine pairing not given here; listed as Homo sapiens) [HU025] | protection from optic nerve cell death was observed | 21.20 ± 1.23 | 22.63 ± 1.01 | 23.77 ± 1.17 | 21.53 ± 0.63 | 23.20 ± 0.83 | 24.23 ± 1.02 | 0.04 ± 0.03 | 0.06 ± 0.05 | 0.47 ± 0.22 | 2.04 ± 0.66 | 39.88 ± 8.74 | 0.04 ± 0.04 | 0.42 ± 0.33 | 0.72 ± 0.51 | 19.61 ± 9.01 | 75.45 ± 6.65 | 0.005 ± 0.002 | 0.021 ± 0.007 | had an effect in reducing the intraocular pressure | intraocular pressure change ([1]; listed as sample 3): A reduction in intraocular pressure was observed |
| NH2—RPTRGDCDL—COOH (H-RPTRGDCDL-OH; listed as Homo sapiens) [HU027] |  | 21.71 ± 0.59 | 23.27 ± 0.71 | 23.98 ± 0.79 | 21.77 ± 0.87 | 23.07 ± 1.13 | 23.97 ± 1.14 | 0.13 ± 0.13 | 0.32 ± 0.14 | 0.44 ± 0.17 | 8.81 ± 3.57 | 56.95 ± 9.83 | 0.17 ± 0.11 | 0.33 ± 0.22 | 0.50 ± 0.26 | 8.20 ± 3.43 | 61.95 ± 11.30 | 0.010 ± 0.003 | 0.016 ± 0.005 |  |  |
